Here are results for three compounds from ChEMBL document CHEMBL2390840, “An analysis of the synthetic tryptamines AMT and 5-MeO-DALT: emerging 'Novel Psychoactive Drugs'” (Bioorg Med Chem Lett, 2013).

Assay [1] has as its target Sodium-dependent dopamine transporter (Homo sapiens, UniProt Q01959). It is filed as cell-based, HEK293.
Assay [2] deals with Sodium-dependent serotonin transporter (Homo sapiens, UniProt P31645). It is filed as cell-based, HEK293.
In assay [3] the target is Sodium-dependent noradrenaline transporter (Homo sapiens, UniProt P23975). In words: Inhibition of [3H]norepinephrine uptake at human NET expressed in HEK293 cells preincubated for 10 mins prior to substrate addition measured after 4 mins by […]. It is filed as cell-based.
Sequence of Sodium-dependent noradrenaline transporter (P23975 whole entry): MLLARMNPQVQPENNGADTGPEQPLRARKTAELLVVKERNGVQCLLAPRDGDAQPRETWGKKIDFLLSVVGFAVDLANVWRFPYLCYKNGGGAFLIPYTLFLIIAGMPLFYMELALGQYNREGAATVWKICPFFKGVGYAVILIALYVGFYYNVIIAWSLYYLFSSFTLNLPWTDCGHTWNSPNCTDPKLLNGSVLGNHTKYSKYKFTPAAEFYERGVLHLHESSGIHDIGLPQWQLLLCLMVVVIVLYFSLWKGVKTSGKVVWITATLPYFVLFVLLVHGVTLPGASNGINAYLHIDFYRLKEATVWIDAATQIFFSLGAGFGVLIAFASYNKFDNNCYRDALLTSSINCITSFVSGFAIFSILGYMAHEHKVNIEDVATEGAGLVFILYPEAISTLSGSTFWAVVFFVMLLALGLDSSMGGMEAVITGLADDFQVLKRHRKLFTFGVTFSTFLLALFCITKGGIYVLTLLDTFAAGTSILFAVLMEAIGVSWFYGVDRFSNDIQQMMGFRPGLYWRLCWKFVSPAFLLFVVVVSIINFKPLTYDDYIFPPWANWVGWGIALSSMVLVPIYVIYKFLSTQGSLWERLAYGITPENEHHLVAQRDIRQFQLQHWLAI

SMILES strings stand for the structures.

Sequence of Sodium-dependent dopamine transporter (Q01959 whole entry): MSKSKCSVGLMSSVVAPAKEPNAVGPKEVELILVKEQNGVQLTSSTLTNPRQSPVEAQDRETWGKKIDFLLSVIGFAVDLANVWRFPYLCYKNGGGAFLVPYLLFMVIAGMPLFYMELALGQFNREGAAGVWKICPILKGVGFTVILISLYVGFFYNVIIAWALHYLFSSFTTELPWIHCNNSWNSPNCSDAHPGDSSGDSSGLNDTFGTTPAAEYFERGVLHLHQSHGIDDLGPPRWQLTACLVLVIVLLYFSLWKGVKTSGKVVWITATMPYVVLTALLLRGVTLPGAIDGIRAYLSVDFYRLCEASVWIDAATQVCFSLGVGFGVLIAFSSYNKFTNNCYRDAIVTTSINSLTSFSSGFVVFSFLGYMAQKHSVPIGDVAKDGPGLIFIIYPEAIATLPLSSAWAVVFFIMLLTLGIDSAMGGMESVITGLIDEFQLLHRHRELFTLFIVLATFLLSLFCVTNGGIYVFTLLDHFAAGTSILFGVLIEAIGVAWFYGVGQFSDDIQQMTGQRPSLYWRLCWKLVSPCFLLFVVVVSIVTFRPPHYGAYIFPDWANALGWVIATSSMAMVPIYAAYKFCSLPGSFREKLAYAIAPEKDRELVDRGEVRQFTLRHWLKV
Sequence of Sodium-dependent serotonin transporter (P31645 whole entry): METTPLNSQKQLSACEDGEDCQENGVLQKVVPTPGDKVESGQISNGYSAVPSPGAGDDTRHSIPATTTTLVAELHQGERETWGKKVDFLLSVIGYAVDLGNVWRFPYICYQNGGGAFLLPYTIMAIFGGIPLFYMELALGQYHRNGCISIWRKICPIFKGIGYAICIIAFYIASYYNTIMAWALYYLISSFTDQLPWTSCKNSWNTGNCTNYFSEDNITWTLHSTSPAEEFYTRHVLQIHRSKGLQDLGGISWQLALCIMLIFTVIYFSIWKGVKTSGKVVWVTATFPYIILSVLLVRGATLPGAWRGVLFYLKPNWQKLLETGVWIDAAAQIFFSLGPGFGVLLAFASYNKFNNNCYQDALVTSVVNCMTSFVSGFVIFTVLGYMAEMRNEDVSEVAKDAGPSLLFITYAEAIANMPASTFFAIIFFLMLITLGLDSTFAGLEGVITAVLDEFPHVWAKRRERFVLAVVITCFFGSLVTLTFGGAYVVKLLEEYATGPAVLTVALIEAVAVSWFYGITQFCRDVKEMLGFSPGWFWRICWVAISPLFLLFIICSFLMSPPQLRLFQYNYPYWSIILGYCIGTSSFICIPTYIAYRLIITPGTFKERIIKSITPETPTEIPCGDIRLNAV

Consider `CN(C)CCC=C1c2ccccc2CCc2ccccc21` [AMITRIPTYLINE], for which, in assay [1], the IC50 – broadly, the concentration needed to halve the response being measured – was 12600 nM and the Ki (as a rule, the equilibrium dissociation constant of an inhibitor or competing ligand from its target) amounted to 6200 nM.
On to `CN[C@@H](C)Cc1ccc2c(c1)OCO2` (single isomer, unassigned; (+)) [MIDOMAFETAMINE], for which the IC50 in assay [1] was 2400 nM; in assay [2], 2750 nM; in assay [3], 2000 nM. This compound also showed a Ki in assay [1] of 897 nM.
In the case of `CC(N)Cc1ccc2c(c1)OCO2` (single isomer, unassigned; (-)) [TENAMFETAMINE], the IC50 in assay [1] was 6170 nM; in assay [2], 6760 nM; in assay [3], 3160 nM. In addition, the Ki in assay [1] was 2420 nM; in assay [2] it was 2310 nM; in assay [3] it was 704 nM.
